One assay addresses T1, RETV804L (Homo sapiens, UniProt P07949, V804L).
T1 sequence (P07949 658-1114 V804L limits assumed): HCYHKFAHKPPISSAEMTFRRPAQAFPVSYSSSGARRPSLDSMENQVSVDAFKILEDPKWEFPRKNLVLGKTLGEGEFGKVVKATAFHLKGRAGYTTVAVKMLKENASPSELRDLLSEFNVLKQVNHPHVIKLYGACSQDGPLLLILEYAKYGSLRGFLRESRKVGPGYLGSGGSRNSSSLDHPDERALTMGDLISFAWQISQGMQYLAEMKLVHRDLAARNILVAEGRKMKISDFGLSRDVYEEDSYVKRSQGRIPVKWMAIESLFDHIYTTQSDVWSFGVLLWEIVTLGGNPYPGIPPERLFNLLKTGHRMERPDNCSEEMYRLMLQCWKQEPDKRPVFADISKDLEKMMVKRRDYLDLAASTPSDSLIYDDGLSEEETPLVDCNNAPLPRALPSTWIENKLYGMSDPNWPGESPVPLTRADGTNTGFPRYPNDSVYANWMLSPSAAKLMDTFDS
Kind of assay: Biochemical kinase selectivity assay, RET V804L.

The target of a further assay is CSF-1R (Homo sapiens, UniProt P07333). Kind of assay: Biochemical kinase selectivity assay, CSF-1R.
Another assay has as its target c-KIT (Homo sapiens, UniProt P10721). Kind of assay: Biochemical kinase selectivity assay, c-KIT.
The next assay deals with FLT3-driven cell lines. Kind of assay: Cell-based studies, FLT3-driven cell lines overall. The settings on record: range over the FLT3 cell lines. From the text: Stable BaF3 populations expressing activated FLT3 were generated by retroviral spinfection with the appropriate mutated plasmid followed by selection and growth factor withdrawal as previously described. The BaF3 cell line was originally obtained from the laboratory of Charles Sawyers and has not been authenticated. MV411 and Molm14 cells were obtained from the laboratory of Scott Kogan and authenticated by Promega STR analysis in June 2013. All cell lines were mycoplasma-free. Cells were incubated with compounds for 48 hours and proliferation was assessed using CellTiter-Glo (Promega; Madison, WI) according to the manufacturer’s recommendation on a SpectraMax M3 microplate reader using SpectraMax Software (Molecular Devices; Sunnyvale, CA). All cell viability data shown is reflective of experiments performed a minimum of three times. […]
S13. […]
2013. […] Cells were incubated with compounds for 48 hours and proliferation was assessed using CellTiter -Glo (Promega; Madison, WI) according to the manufacturer’s recommendation on a SpectraMax M3 microplate reader using SpectraMax Software (Molecular Devices; Sunnyvale, CA). […]

Where two headings read alike, the source gives them in different places.

As a reminder, the inhibition is the share of the control response that was lost under treatment. By IC50 is commonly meant the point on the concentration scale where inhibition reaches its midpoint. The GI50 is the concentration that inhibits growth by half. A low value points to greater sensitivity of the cells.

Chain of c-KIT (P10721 26-976): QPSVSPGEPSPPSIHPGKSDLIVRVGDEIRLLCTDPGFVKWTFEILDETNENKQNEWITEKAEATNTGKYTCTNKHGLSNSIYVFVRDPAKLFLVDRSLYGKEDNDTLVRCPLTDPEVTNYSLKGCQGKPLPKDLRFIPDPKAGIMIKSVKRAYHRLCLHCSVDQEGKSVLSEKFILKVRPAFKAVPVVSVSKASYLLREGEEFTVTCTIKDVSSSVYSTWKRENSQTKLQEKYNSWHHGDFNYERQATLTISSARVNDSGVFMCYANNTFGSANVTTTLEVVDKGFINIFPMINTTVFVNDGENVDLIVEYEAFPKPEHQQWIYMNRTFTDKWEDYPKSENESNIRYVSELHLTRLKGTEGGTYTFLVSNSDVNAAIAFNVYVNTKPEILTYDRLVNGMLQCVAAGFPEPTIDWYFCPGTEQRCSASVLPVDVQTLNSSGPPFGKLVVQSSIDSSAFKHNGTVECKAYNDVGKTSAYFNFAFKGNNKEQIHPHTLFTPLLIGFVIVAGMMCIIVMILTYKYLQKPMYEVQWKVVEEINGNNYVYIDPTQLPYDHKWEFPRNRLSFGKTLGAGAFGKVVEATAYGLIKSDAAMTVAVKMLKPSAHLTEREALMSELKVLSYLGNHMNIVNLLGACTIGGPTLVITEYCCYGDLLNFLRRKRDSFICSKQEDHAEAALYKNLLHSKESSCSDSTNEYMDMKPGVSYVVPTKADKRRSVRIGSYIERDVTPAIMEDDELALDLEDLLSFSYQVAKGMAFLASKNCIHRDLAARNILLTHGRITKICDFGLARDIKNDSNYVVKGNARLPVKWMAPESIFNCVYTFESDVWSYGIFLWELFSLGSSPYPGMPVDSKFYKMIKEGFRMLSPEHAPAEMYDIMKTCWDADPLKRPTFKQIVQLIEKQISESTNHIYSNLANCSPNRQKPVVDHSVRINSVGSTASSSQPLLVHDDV
Chain of CSF-1R (P07333 20-972, species assumed): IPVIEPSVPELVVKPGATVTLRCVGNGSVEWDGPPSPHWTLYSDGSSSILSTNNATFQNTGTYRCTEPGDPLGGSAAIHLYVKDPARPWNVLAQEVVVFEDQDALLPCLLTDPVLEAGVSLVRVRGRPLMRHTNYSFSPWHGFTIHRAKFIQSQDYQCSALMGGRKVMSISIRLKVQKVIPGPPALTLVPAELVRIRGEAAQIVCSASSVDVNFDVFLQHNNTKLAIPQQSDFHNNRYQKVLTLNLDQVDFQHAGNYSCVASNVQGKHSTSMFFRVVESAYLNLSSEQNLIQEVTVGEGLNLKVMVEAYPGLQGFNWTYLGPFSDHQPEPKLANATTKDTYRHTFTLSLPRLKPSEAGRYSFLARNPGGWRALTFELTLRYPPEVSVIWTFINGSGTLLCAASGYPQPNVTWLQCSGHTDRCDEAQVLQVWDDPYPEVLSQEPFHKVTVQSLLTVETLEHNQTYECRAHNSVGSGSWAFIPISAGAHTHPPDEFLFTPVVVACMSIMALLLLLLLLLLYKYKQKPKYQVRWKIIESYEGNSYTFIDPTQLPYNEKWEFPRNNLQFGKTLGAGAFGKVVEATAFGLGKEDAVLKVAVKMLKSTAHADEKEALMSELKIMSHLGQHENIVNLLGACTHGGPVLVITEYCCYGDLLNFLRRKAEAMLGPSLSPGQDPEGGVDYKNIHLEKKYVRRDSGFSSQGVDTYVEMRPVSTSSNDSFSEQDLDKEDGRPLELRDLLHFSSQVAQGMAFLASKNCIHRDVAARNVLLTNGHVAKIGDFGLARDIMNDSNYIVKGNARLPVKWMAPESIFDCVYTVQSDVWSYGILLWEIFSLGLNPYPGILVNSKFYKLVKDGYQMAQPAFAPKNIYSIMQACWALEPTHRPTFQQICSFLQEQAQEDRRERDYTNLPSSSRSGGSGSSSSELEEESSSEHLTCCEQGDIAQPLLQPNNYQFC

For the compound `CC(C)(C)c1cc(NC(=O)Cc2ccc(Nc3cc(Nc4ccc(S(C)(=O)=O)cc4)ncn3)cc2)no1` [13k, 2-(4-(6-(4-(Methylsulfonyl)phenylamino)pyrimidin-4-ylamino)phenyl)-N-(5-tert-butylisoxazol-3-yl)acetamide], the inhibition at 20 µM on RETV804L came out at 40.8%; against CSF-1R (at 20 µM), 60.7%.

On to `Cn1nc(C(C)(C)C)cc1NC(=O)Cc1ccc(Nc2cc(Nc3ccc(S(C)(=O)=O)cc3)ncn2)cc1` [13a, 2-(4-(6-(4-(Methylsulfonyl)phenylamino)pyrimidin-4-ylamino)phenyl)-N-(3-tert-butyl-1-methyl-1H-pyrazol-5-yl)acetamide], for which the half-maximal inhibitory concentration (IC50) at c-KIT (as printed in Fig. 2, read-out: cKit IC50) stood at 8800 nM; at c-KIT (in vitro kinase assay, read-out: c-KIT IC50 (nM) ± SD) it was 8800 nM; at CSF-1R (in vitro kinase assay, read-out: CSF-1R IC50 (nM) ± SD) it was 13000 nM; at CSF-1R (read-out: CSF-1R IC50) it was 13000 nM. The “selectivity for FLT3 over c-KIT” value at c-KIT (in vitro kinase assays) is listed as more than 500 fold. At RETV804L, this compound showed an inhibition at 20 µM of 62.3%. Besides, the GI50 in the assay with FLT3-driven cell lines is 0.009 to 2 µM.

(Values after publication PMC5829162, “Rational Design, Synthesis and Biological Evaluation of Pyrimidine-4,6-diamine derivatives as Type-II inhibitors of FLT3 Selective Against c-KIT” (Scientific Reports, 2018).)
